According to US5847092A (Zambon Group S.p.A., priority 1994, dated 1998):
In brackets after ≈: the same amount, converted by molar mass.

Legend:
Assay in all cases: In vitro antibacterial activity, MIC, broth microdilution
Format in all cases: cell-based
[1] = system: Enterococcus faecalis ATCC 29212; settings: Enterococcus faecalis, ATCC29212; E. faecalis ATCC 29212; MHB; 37° C., 18 hours; read-out: minimum inhibiting concentration MIC
Method: (§1) a) In vitro antibacterial activity The determination of the minimum inhibiting concentrations (MIC), with respect to Gram-positive and Gram-negative bacteria was carried out through the micromethod of gradual broth dilution in double series [National Committee for Clinical Laboratory Standards, 1990; Methods for dilution antimicrobial susceptibility tests for bacteria that grow aerobically; Approved standards […], Villanova, Pa.], by using Mueller Hinton Broth (MHB) as a culture medium. In the case of […] bacteria, horse serum at 5% (Streptococcus pneumoniae and Streptococcus pyogenes) was added to the medium. Roxithromycin and Clarithromycin [The Merck Index, XI Ed., No. 8253 and 2340, respectively] were used as reference macrolides. MIC, expressed as (μg/ml), were determined after incubation of the microplates at 37° C. for 18 hours, evaluating the lowest antibiotic concentration enabling the inhibition of bacterial development.

[2] = system: Escherichia coli ATCC 25922; settings: Escherichia coli, ATCC25922; E. coli ATCC 25922; MHB; 37° C., 18 hours; read-out: minimum inhibiting concentration MIC
Method: as §1

[3] = system: Klebsiella pneumoniae ZC 2; settings: Klebsiella pneumoniae, ZC2; K. pneumoniae ZC 2; MHB; 37° C., 18 hours; read-out: minimum inhibiting concentration MIC
Method: as §1

[4] = system: Staphylococcus aureus PV 14; settings: Staphylococcus aureus, PV14; S. aureus PV 14; MHB; 37° C., 18 hours; read-out: minimum inhibiting concentration MIC
Method: as §1

[5] = system: Streptococcus pneumoniae BS 3; settings: Streptococcus pneumoniae, BS3; S. pneumoniae BS 3; MHB + 5% horse serum; 37° C., 18 hours; read-out: minimum inhibiting concentration MIC
Method: as §1

[6] = system: Streptococcus pneumoniae BS 4; settings: Streptococcus pneumoniae, BS4; S. pneumoniae BS 4; MHB + 5% horse serum; 37° C., 18 hours; read-out: minimum inhibiting concentration MIC
Method: as §1

[7] = system: Streptococcus pyogenes A 26; settings: Streptococcus pyogenes, A26; S. pyogenes A 26; MHB + 5% horse serum; 37° C., 18 hours; read-out: minimum inhibiting concentration MIC
Method: as §1

[8] = system: Streptococcus pyogenes C 203; settings: Streptococcus pyogenes, C203; S. pyogenes C 203; MHB + 5% horse serum; 37° C., 18 hours; read-out: minimum inhibiting concentration MIC
Method: as §1

| Compound | MIC [1] [µg/mL] | MIC [2] [µg/mL] | MIC [3] [µg/mL] | MIC [4] [µg/mL] | MIC [5] [µg/mL] | MIC [6] [µg/mL] | MIC [7] [µg/mL] | MIC [8] [µg/mL] |
| --- | --- | --- | --- | --- | --- | --- | --- | --- |
| CC[C@H]1OC(=O)[C@H](C)[C@@H](O[C@H]2C[C@@](C)(OC)[C@@H](O)[C@H](C)O2)[C@H](C)[C@@H](O[C@@H]2O[C@H](C)C[C@H](N(C)C)[C@H]2O)[C@](C)(O)C[C@@H](C)/C(=N\OCCNCCNCc2ccccc2)[C@H](C)[C@@H](O)[C@]1(C)O [Compound 5, Erythromycin A (E)-9-[0-[2-[2-(phenylmethylamino)ethylamino]ethyl]oxime]] | 4 (≈ 4.32 µM) | 8 (≈ 8.65 µM) | 32 (≈ 34.6 µM) | 1 (≈ 1.08 µM) | 0.0156 | 0.0312 | 0.0312 | 0.0156 |
| CC[C@H]1OC(=O)[C@H](C)[C@@H](O[C@H]2C[C@@](C)(OC)[C@@H](O)[C@H](C)O2)[C@H](C)[C@@H](O[C@@H]2O[C@H](C)C[C@H](N(C)C)[C@H]2O)[C@](C)(O)C[C@@H](C)/C(=N\OCCCCCCNCCCCCCNCc2ccccc2)[C@H](C)[C@@H](O)[C@]1(C)O [Compound 6, Erythromycin A (E)-9-[0-[6-[6-(phenylmethylamino)hexylamino]hexyl]oxime]] | 8 (≈ 7.71 µM) | 4 (≈ 3.86 µM) | 16 (≈ 15.4 µM) | 0.25 (≈ 0.241 µM) | 0.0156 | 0.0312 | 0.0312 | 0.0156 |
| CC[C@H]1OC(=O)[C@H](C)[C@@H](O[C@H]2C[C@@](C)(OC)[C@@H](O)[C@H](C)O2)[C@H](C)[C@@H](O[C@@H]2O[C@H](C)C[C@H](N(C)C)[C@H]2O)[C@](C)(O)C[C@@H](C)/C(=N\OCCCCCCNCCCNCc2ccccc2)[C@H](C)[C@@H](O)[C@]1(C)O [Compound 7, Erythromycin A (E)-9-[0-[6-[3-(phenylmethylamino)propylamino]hexyl]oxime]] | 4 (≈ 4.02 µM) | 4 (≈ 4.02 µM) | 16 (≈ 16.1 µM) | 0.5 (≈ 0.502 µM) | 0.0625 | 0.0625 | 0.0312 | 0.0156 |
| CC[C@H]1OC(=O)[C@H](C)[C@@H](O[C@H]2C[C@@](C)(OC)[C@@H](O)[C@H](C)O2)[C@H](C)[C@@H](O[C@@H]2O[C@H](C)C[C@H](N(C)C)[C@H]2O)[C@](C)(O)C[C@@H](C)/C(=N\OCCCCCCNCCCCCNCc2ccccc2)[C@H](C)[C@@H](O)[C@]1(C)O [Compound 8, Erythromycin A (E)-9-[0-[6-[5-(phenylmethylamino)pentylamino]hexyl]oxime]] | 8 (≈ 7.82 µM) | 4 (≈ 3.91 µM) | 16 (≈ 15.6 µM) | 0.5 (≈ 0.489 µM) | 0.25 | 0.5 | 0.0312 | 0.0078 |
| CC[C@H]1OC(=O)[C@H](C)[C@@H](O[C@H]2C[C@@](C)(OC)[C@@H](O)[C@H](C)O2)[C@H](C)[C@@H](O[C@@H]2O[C@H](C)C[C@H](N(C)C)[C@H]2O)[C@](C)(O)C[C@@H](C)/C(=N\OCCNCCCCCCCCNCc2ccccc2)[C@H](C)[C@@H](O)[C@]1(C)O [Compound 9, Erythromycin A (E)-9-[0-[2-[8-(phenylmethyiamino)octylamino]ethyl]oxime]] | 4 (≈ 3.96 µM) | 4 (≈ 3.96 µM) | 16 (≈ 15.9 µM) | 0.25 (≈ 0.248 µM) | 0.0078 | 0.0078 | 0.0078 | 0.0039 |
| CC[C@H]1OC(=O)[C@H](C)[C@@H](O[C@H]2C[C@@](C)(OC)[C@@H](O)[C@H](C)O2)[C@H](C)[C@@H](O[C@@H]2O[C@H](C)C[C@H](N(C)C)[C@H]2O)[C@](C)(O)C[C@@H](C)/C(=N\OCCCCCNCCCCCCNCc2ccccc2)[C@H](C)[C@@H](O)[C@]1(C)O [Compound 11, Erythromycin A (E)-9-[0-[5-[6-(phenylmethylamino)hexylamino]pentyl]oxime]] | 16 (≈ 15.6 µM) | 8 (≈ 7.82 µM) | 16 (≈ 15.6 µM) | 0.5 (≈ 0.489 µM) | 0.25 | 0.5 | 0.0625 | 0.0312 |
| CC[C@H]1OC(=O)[C@H](C)[C@@H](O[C@H]2C[C@@](C)(OC)[C@@H](O)[C@H](C)O2)[C@H](C)[C@@H](O[C@@H]2O[C@H](C)C[C@H](N(C)C)[C@H]2O)[C@](C)(O)C[C@@H](C)/C(=N\OCCCNCCCCCCNCc2ccccc2)[C@H](C)[C@@H](O)[C@]1(C)O [Compound 12, Erythromycin A (E)-9-[0-[3-[6-(phenylmethylamino)hexylamino]propyl]oxime]] | 16 (≈ 16.1 µM) | 8 (≈ 8.04 µM) | 32 (≈ 32.1 µM) | 0.25 (≈ 0.251 µM) | 0.25 | 0.5 | 0.0625 | 0.0312 |
| CC[C@H]1OC(=O)[C@H](C)[C@@H](O[C@H]2C[C@@](C)(OC)[C@@H](O)[C@H](C)O2)[C@H](C)[C@@H](O[C@@H]2O[C@H](C)C[C@H](N(C)C)[C@H]2O)[C@](C)(O)C[C@@H](C)/C(=N\OCCNCCCCCCNCc2ccccc2O)[C@H](C)[C@@H](O)[C@]1(C)O [Compound 24, Erythromycin A (E)-9-[0-[2-[6-[(2-hydroxyphenyl)methylamino]hexylamino]ethyl]oxime]] | 4 (≈ 4.01 µM) | 4 (≈ 4.01 µM) | 8 (≈ 8.02 µM) | 0.25 (≈ 0.251 µM) | 0.0078 | 0.0156 | 0.0156 | 0.0039 |
| CC[C@H]1OC(=O)[C@H](C)[C@@H](O[C@H]2C[C@@](C)(OC)[C@@H](O)[C@H](C)O2)[C@H](C)[C@@H](O[C@@H]2O[C@H](C)C[C@H](N(C)C)[C@H]2O)[C@](C)(O)C[C@@H](C)/C(=N\OCCNCCCCCCNCc2cccc(O)c2)[C@H](C)[C@@H](O)[C@]1(C)O [Compound 25, Erythromycin A (E)-9-[0-[2-[6-[(3-hydroxyphenyl)methylamino]hexylamino]ethyl]oxime]] | 8 (≈ 8.02 µM) | 8 (≈ 8.02 µM) | 16 (≈ 16 µM) | 0.125 (≈ 0.125 µM) | 0.25 | 0.25 | 0.125 | 0.0312 |
| CC[C@H]1OC(=O)[C@H](C)[C@@H](O[C@H]2C[C@@](C)(OC)[C@@H](O)[C@H](C)O2)[C@H](C)[C@@H](O[C@@H]2O[C@H](C)C[C@H](N(C)C)[C@H]2O)[C@](C)(O)C[C@@H](C)/C(=N\OCCNCCCCCCNCc2ccc(O)cc2)[C@H](C)[C@@H](O)[C@]1(C)O [Compound 28, Erythromycin A (E)-9-[0-[2-[6-[(4-hydroxyphenyl)methylamino]hexylamino]ethyl]oxime]] | 16 (≈ 16 µM) | 16 (≈ 16 µM) | 32 (≈ 32.1 µM) | 0.125 (≈ 0.125 µM) | 0.25 | 0.25 | 0.25 | 0.125 |
| CC[C@H]1OC(=O)[C@H](C)[C@@H](O[C@H]2C[C@@](C)(OC)[C@@H](O)[C@H](C)O2)[C@H](C)[C@@H](O[C@@H]2O[C@H](C)C[C@H](N(C)C)[C@H]2O)[C@](C)(O)C[C@@H](C)/C(=N\OCCNCCCCCCNCc2ccco2)[C@H](C)[C@@H](O)[C@]1(C)O [Compound 31] | 4 (≈ 4.12 µM) | 4 (≈ 4.12 µM) | 16 (≈ 16.5 µM) | 0.5 (≈ 0.515 µM) | 0.0078 | 0.0078 | 0.0078 | 0.0039 |
| CC[C@H]1OC(=O)[C@H](C)[C@@H](O[C@H]2C[C@@](C)(OC)[C@@H](O)[C@H](C)O2)[C@H](C)[C@@H](O[C@@H]2O[C@H](C)C[C@H](N(C)C)[C@H]2O)[C@](C)(O)C[C@@H](C)/C(=N\OCCNCCCCCCNCc2cc(Cl)cc(Cl)c2O)[C@H](C)[C@@H](O)[C@]1(C)O [Compound 32, Erythromycin A (E)-9-[0-[2-[6-[(3,5-dichloro-2-hydroxyphenyl)methylamino]hexylamino]ethyl]oxime]] | 2 (≈ 1.88 µM) | 4 (≈ 3.75 µM) | 16 (≈ 15 µM) | 0.5 (≈ 0.469 µM) | 0.0625 | 0.0312 | 0.0625 | 0.0156 |
| CC[C@H]1OC(=O)[C@H](C)[C@@H](O[C@H]2C[C@@](C)(OC)[C@@H](O)[C@H](C)O2)[C@H](C)[C@@H](O[C@@H]2O[C@H](C)C[C@H](N(C)C)[C@H]2O)[C@](C)(O)C[C@@H](C)/C(=N\OCCNCCCCCCNCc2ccc(O)c([N+](=O)[O-])c2)[C@H](C)[C@@H](O)[C@]1(C)O [Compound 36, Erythromycin A (E)-9-[0-[2-[6-[(4-hydroxy-3-nitrophenyl)methylamino]hexylamino]ethyl]oxime]] | 16 (≈ 15.4 µM) | 8 (≈ 7.68 µM) | 32 (≈ 30.7 µM) | 0.5 (≈ 0.48 µM) | 0.0625 | 0.0625 | 0.0625 | 0.0078 |
